In PubChem BioAssay AID248 (DTP/NCI, 2004):
“And” between values parts separate entries of the source, which are not always exact repeats. Identical values can stand only once. Inconclusive results and toxic doses are left out.

Tested on: L1210 leukemia ip in BDF1 mice, survival T/C
Test: NCI In Vivo Anticancer Drug Screen. Data for tumor model L1210 Leukemia (intraperitoneal) in B6D2F1 (BDF1) mice
Settings: endpoint: mean survival time, higher = longer survival
How it was run: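 Mice bearing the transplanted tumor received compound or vehicle. Survival of the treated group was divided by that of the vehicle-treated control group to give the ratio.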

[1] = dose: 100.0 mg/kg/injection, schedule: Q04DX003 (ip), vehicle: other
[2] = dose: 200.0 mg/kg/injection, schedule: Q04DX003 (ip), vehicle: other
[3] = dose: 400.0 mg/kg/injection, schedule: Q04DX003 (ip), vehicle: other
[4] = dose: 100.0 mg/kg/injection, schedule: Q01DX009 (ip), vehicle: saline
[5] = dose: 200.0 mg/kg/injection, schedule: Q01DX009 (ip), vehicle: saline
[6] = dose: 400.0 mg/kg/injection, schedule: Q01DX009 (ip), vehicle: saline
[7] = dose: 100.0 mg/kg/injection, schedule: Q04DX002 (ip), vehicle: Klucel (hydroxypropylcellulose) (HPC)
[8] = dose: 200.0 mg/kg/injection, schedule: Q04DX002 (ip), vehicle: Klucel (hydroxypropylcellulose) (HPC)
[9] = dose: 400.0 mg/kg/injection, schedule: Q04DX002 (ip), vehicle: Klucel (hydroxypropylcellulose) (HPC)
[10] = dose: 100.0 mg/kg/injection, schedule: Q01DX009 (ip), vehicle: saline with Tween-80
[11] = dose: 100.0 mg/kg/injection, schedule: Q04DX003 (ip), vehicle: saline with Tween-80
[12] = dose: 200.0 mg/kg/injection, schedule: Q01DX009 (ip), vehicle: saline with Tween-80
[13] = dose: 200.0 mg/kg/injection, schedule: Q04DX003 (ip), vehicle: saline with Tween-80
[14] = dose: 400.0 mg/kg/injection, schedule: Q01DX009 (ip), vehicle: saline with Tween-80
[15] = dose: 400.0 mg/kg/injection, schedule: Q04DX003 (ip), vehicle: saline with Tween-80
[16] = dose: 100.0 mg/kg/injection, schedule: Q04DX002 (ip), vehicle: saline with Tween-80
[17] = dose: 200.0 mg/kg/injection, schedule: Q04DX002 (ip), vehicle: saline with Tween-80
[18] = dose: 400.0 mg/kg/injection, schedule: Q04DX002 (ip), vehicle: saline with Tween-80

SMILES: CC(=O)OCC1OC(OC(C)=O)C(OC(C)=O)C(OC(C)=O)C1OC(C)=O (stereo not given)
- T/C (dose: 100.0 mg/kg/injection, schedule: Q01DX001 (ip), vehicle: Klucel (hydroxypropylcellulose) (HPC)): 101 % of control
- T/C (dose: 100.0 mg/kg/injection, schedule: Q04DX003 (ip), vehicle: Klucel (hydroxypropylcellulose) (HPC)): 97 % of control
- T/C (dose: 200.0 mg/kg/injection, schedule: Q01DX001 (ip), vehicle: Klucel (hydroxypropylcellulose) (HPC)): 94 % of control
- T/C (dose: 200.0 mg/kg/injection, schedule: Q04DX003 (ip), vehicle: Klucel (hydroxypropylcellulose) (HPC)): 93 % of control
- T/C (dose: 400.0 mg/kg/injection, schedule: Q01DX001 (ip), vehicle: Klucel (hydroxypropylcellulose) (HPC)): 105 % of control
- T/C (dose: 400.0 mg/kg/injection, schedule: Q04DX003 (ip), vehicle: Klucel (hydroxypropylcellulose) (HPC)): 102 % of control

SMILES: Nc1cc(C(=O)Nc2ccc(C3=NCCN3)cc2)cc(C(=O)Nc2ccc(C3=NCCN3)cc2)c1
- T/C (dose: 4.0 mg/kg/injection, schedule: Q01DX Z (ip), vehicle: saline): 113 % of control
- T/C (dose: 8.0 mg/kg/injection, schedule: Q01DX004 (im), vehicle: olive oil, sesame oil, peanut oil): 95 % of control
- T/C (dose: 8.0 mg/kg/injection, schedule: Q01DX Z (ip), vehicle: saline): 107 % of control
- T/C (dose: 16.0 mg/kg/injection, schedule: Q01DX004 (im), vehicle: olive oil, sesame oil, peanut oil): 95 % of control
- T/C (dose: 16.0 mg/kg/injection, schedule: Q01DX Z (ip), vehicle: saline): 123 % of control
- T/C (dose: 31.0 mg/kg/injection, schedule: Q01DX Z (ip), vehicle: carboxymethylcellulose (CMC)): 168 % of control
- T/C (dose: 32.0 mg/kg/injection, schedule: Q01DX004 (im), vehicle: olive oil, sesame oil, peanut oil): 109 % of control
- T/C (dose: 32.0 mg/kg/injection, schedule: Q01DX010 (sc), vehicle: saline): 159 % of control
- T/C (dose: 62.0 mg/kg/injection, schedule: Q01DX Z (ip), vehicle: carboxymethylcellulose (CMC)): 197 % of control
- T/C (dose: 62.5 mg/kg/injection, schedule: Q01DX010 (oral), vehicle: saline): 115 % of control
- T/C (dose: 64.0 mg/kg/injection, schedule: Q01DX004 (im), vehicle: olive oil, sesame oil, peanut oil): 114 % of control
- T/C (dose: 64.0 mg/kg/injection, schedule: Q01DX010 (sc), vehicle: saline): 179 % of control
- T/C (dose: 64.0 mg/kg/injection, schedule: Q01DX Z (ip), vehicle: saline): 249 % of control
- T/C (dose: 125.0 mg/kg/injection, schedule: Q01DX010 (oral), vehicle: saline): 87 % of control
- T/C (dose: 125.0 mg/kg/injection, schedule: Q01DX Z (ip), vehicle: carboxymethylcellulose (CMC)): 155 % of control
- T/C (dose: 128.0 mg/kg/injection, schedule: Q01DX010 (sc), vehicle: saline): 186 % of control
- T/C (dose: 128.0 mg/kg/injection, schedule: Q01DX Z (ip), vehicle: saline): 212 % of control
- T/C (dose: 250.0 mg/kg/injection, schedule: Q01DX010 (oral), vehicle: saline): 88 % of control
- T/C (dose: 250.0 mg/kg/injection, schedule: Q01DX Z (ip), vehicle: carboxymethylcellulose (CMC)): 117 % of control
- T/C (dose: 500.0 mg/kg/injection, schedule: Q01DX010 (oral), vehicle: saline): 117 % of control
- T/C (dose: 1000.0 mg/kg/injection, schedule: Q01DX010 (oral), vehicle: saline): 115 % of control

SMILES: OC(OC/C(I)=C(/I)COC(O)C(Cl)(Cl)Cl)C(Cl)(Cl)Cl (stereo not given)
- T/C (dose: 100.0 mg/kg/injection, schedule: Q01DX009 (ip), vehicle: other): 103 % of control
- T/C [1]: 103 % of control
- T/C (dose: 200.0 mg/kg/injection, schedule: Q01DX009 (ip), vehicle: other): 92 % of control
- T/C [2]: 100 % of control
- T/C [3]: 97 % of control

SMILES: CCOC(=O)C1CN(C)CCC1=O (stereo not given)
- T/C (dose: 100.0 mg/kg/injection, schedule: Q01DX001 (ip), vehicle: saline): 108 % of control
- T/C [4]: 123 % of control
- T/C (dose: 100.0 mg/kg/injection, schedule: Q04DX003 (ip), vehicle: saline): 100 % of control
- T/C (dose: 200.0 mg/kg/injection, schedule: Q01DX001 (ip), vehicle: saline): 101 % of control
- T/C [5]: 98 % of control
- T/C (dose: 200.0 mg/kg/injection, schedule: Q04DX003 (ip), vehicle: saline): 104 % of control
- T/C (dose: 400.0 mg/kg/injection, schedule: Q01DX001 (ip), vehicle: saline): 97 % of control
- T/C [6]: 96 % of control
- T/C (dose: 400.0 mg/kg/injection, schedule: Q04DX003 (ip), vehicle: saline): 98 % of control

SMILES: c1ccc(-c2nc3ccccc3[nH]2)cc1
- T/C (dose: 55.0 mg/kg/injection, schedule: Q01DX Z (ip), vehicle: methylcellulose (MC)): 107 % of control
- T/C (dose: 83.0 mg/kg/injection, schedule: Q01DX Z (ip), vehicle: methylcellulose (MC)): 103 % of control
- T/C [7]: 109 % of control and 95 % of control
- T/C (dose: 125.0 mg/kg/injection, schedule: Q01DX Z (ip), vehicle: methylcellulose (MC)): 100 % of control
- T/C [8]: 103 % of control and 106 % of control
- T/C [9]: 109 % of control and 98 % of control

SMILES: CC(C)C(C(=O)c1ccccc1)C(Cl)c1ccccc1 (stereo not given)
- T/C [1]: 94 % of control
- T/C [2]: 102 % of control
- T/C [3]: 93 % of control

SMILES: COC(=O)C1C=CCC(C(=O)OC)C1 (stereo not given)
- T/C [10]: 91 % of control
- T/C [11]: 109 % of control
- T/C [12]: 96 % of control
- T/C [13]: 96 % of control
- T/C [14]: 100 % of control
- T/C [15]: 93 % of control

SMILES: O=c1nc2c3ncn(Cc4ccccc4)c3nnn2[nH]1
- T/C (dose: 100.0 mg/kg/injection, schedule: Q01DX001 (ip), vehicle: carboxymethylcellulose (CMC)): 100 % of control
- T/C (dose: 200.0 mg/kg/injection, schedule: Q01DX001 (ip), vehicle: carboxymethylcellulose (CMC)): 106 % of control
- T/C (dose: 400.0 mg/kg/injection, schedule: Q01DX001 (ip), vehicle: carboxymethylcellulose (CMC)): 100 % of control

SMILES: CC(C)(C)S(=O)(=O)CCS(=O)(=O)C(C)(C)C
- T/C [4]: 100 % of control
- T/C [7]: 104 % of control
- T/C [16]: 97 % of control
- T/C [5]: 100 % of control
- T/C [8]: 97 % of control
- T/C [17]: 94 % of control
- T/C [6]: 107 % of control
- T/C [9]: 104 % of control
- T/C [18]: 90 % of control

SMILES: O=C1C=CC(=O)N1c1ccc([N+](=O)[O-])cc1
- T/C (dose: 0.78 mg/kg/injection, schedule: Q04DX003 (ip), vehicle: Klucel (hydroxypropylcellulose) (HPC)): 107 % of control
- T/C (dose: 1.56 mg/kg/injection, schedule: Q01DX009 (ip), vehicle: Klucel (hydroxypropylcellulose) (HPC)): 97 % of control
- T/C (dose: 1.56 mg/kg/injection, schedule: Q04DX003 (ip), vehicle: Klucel (hydroxypropylcellulose) (HPC)): 93 % of control
- T/C (dose: 3.12 mg/kg/injection, schedule: Q01DX009 (ip), vehicle: Klucel (hydroxypropylcellulose) (HPC)): 92 % of control
- T/C (dose: 3.12 mg/kg/injection, schedule: Q04DX003 (ip), vehicle: Klucel (hydroxypropylcellulose) (HPC)): 91 % of control
- T/C (dose: 6.25 mg/kg/injection, schedule: Q01DX009 (ip), vehicle: Klucel (hydroxypropylcellulose) (HPC)): 92 % of control
- T/C (dose: 6.25 mg/kg/injection, schedule: Q04DX003 (ip), vehicle: Klucel (hydroxypropylcellulose) (HPC)): 92 % of control
- T/C (dose: 9.2 mg/kg/injection, schedule: Q01DX009 (ip), vehicle: Klucel (hydroxypropylcellulose) (HPC)): 92 % of control
- T/C (dose: 14.0 mg/kg/injection, schedule: Q01DX009 (ip), vehicle: Klucel (hydroxypropylcellulose) (HPC)): 90 % of control
- T/C (dose: 21.0 mg/kg/injection, schedule: Q01DX009 (ip), vehicle: Klucel (hydroxypropylcellulose) (HPC)): 95 % of control

SMILES: COc1ccc(CCNC(=O)c2ccccc2N)cc1OC
- T/C (dose: 100.0 mg/kg/injection, schedule: Q01DX001 (ip), vehicle: saline with Tween-80): 97 % of control
- T/C [10]: 90 % of control and 91 % of control
- T/C [16]: 98 % of control
- T/C [11]: 105 % of control
- T/C (dose: 200.0 mg/kg/injection, schedule: Q01DX001 (ip), vehicle: saline with Tween-80): 98 % of control
- T/C [12]: 95 % of control and 109 % of control
- T/C [17]: 98 % of control
- T/C [13]: 92 % of control
- T/C (dose: 400.0 mg/kg/injection, schedule: Q01DX001 (ip), vehicle: saline with Tween-80): 106 % of control
- T/C [14]: 90 % of control and 91 % of control
- T/C [18]: 95 % of control
- T/C [15]: 95 % of control
